Measured values published in US9688630B2, “3,3′-disubstituted indolines as inhibitors of cholesterol ester transfer protein” (Merck Sharp & Dohme Corp., priority 2013, dated 2017).

Columns and labels:
recombinant CETP = biological target: T1, recombinant CETP (Homo sapiens, UniProt P11597); test: RTA assay using recombinant CETP (2% RTA); format: biochemical; conditions: 2% human serum
T1 sequence (P11597 18-493): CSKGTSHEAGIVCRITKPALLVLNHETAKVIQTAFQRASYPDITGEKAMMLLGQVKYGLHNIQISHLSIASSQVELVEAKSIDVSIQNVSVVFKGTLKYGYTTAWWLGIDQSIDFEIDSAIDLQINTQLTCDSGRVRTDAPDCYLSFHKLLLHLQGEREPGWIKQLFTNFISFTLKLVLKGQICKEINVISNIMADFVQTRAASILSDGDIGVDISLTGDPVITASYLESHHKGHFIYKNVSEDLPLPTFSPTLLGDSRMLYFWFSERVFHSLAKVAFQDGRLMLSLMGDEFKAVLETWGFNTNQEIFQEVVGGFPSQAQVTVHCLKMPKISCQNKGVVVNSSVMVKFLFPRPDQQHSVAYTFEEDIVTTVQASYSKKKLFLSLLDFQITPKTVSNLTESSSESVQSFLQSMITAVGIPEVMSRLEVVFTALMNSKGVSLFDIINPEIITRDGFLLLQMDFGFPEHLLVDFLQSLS
Procedure: (§1) In Vitro Radioactive Assays of CETP-Catalyzed CE and TG Transfer (RTA Assay)
(§2) Reagents and sources are: [3H] cholesteryl oleate (GE #TRK.886), [3H] Triolein (Perkin-Elmer NET-431), Butylated hydroxyl toluene (Aldrich, #D4740-4), DOPC (Sigma, #P6354), Sodium Bromide (Fisher scientific #S255-500), PEG 8000 (Fisher, #BP233-1), and human HDL (Intracel Corp #RP-036).
(§3) An in vitro assay for determining IC50's to identify compounds that inhibit CETP transfer activity is performed based on a modification of a published method (Morton and Zilversmit, (1981) A plasma inhibitor of triglyceride and cholesteryl ester transfer activities, J. Biol. Chem. 256(23), 11992-11995). The ability of inhibitors to alter CETP activity is performed using two different assays: one using recombinant CETP and one using an endogenous plasma source of CETP. Both assays measure the transfer of [3H] cholesteryl oleate or [3H] triolein from exogenous LDL to HDL.
(§4) Radiolabeled donor particles are generated by first combining 100 μl of 200 μM butylated hydroxyl toluene in CHCl3, 216 μL of 21.57 mM DOPC in EtOH, and either 500 μCi [3H]-triolein (Perkin Elmer #NET-431) or 500 μCi [3H]-cholesteryl oleate (GE #TRK886) in a glass tube. Reagents are mixed, dried under nitrogen, and then resuspended in 2 mL of 50 mM Tris, 27 μM EDTA at pH 7.4. After a brief vortex, the solution is sonicated until clear and mixed with 20 mL of fresh human serum. The mixture is incubated overnight at 37° C. The [3H] labeled LDL substrate is separated at 1.063 g/ml density by sequential ultracentrifugal flotation in NaBr according to the method of Havel, Eder, et al., 1955, and Chapman, Goldstein, et al., 1981. Once isolated the particles are dialyzed 3× in CETP buffer (50 mM Tris, pH 7.4, 100 mM NaCl, 1 mM EDTA). Human HDL is purchased from Intracel and used as the acceptor particles.
(§5) Transfer assays are performed in a 96-well v-bottom polypropylene plate. For the RTA using recombinant CETP (2% RTA), an assay cocktail is prepared with the final concentrations 128 μg/mL HDL, 20 nM rCETP, 2% human serum, and 1×CETP buffer. 1 μL of each test compound diluted in DMSO is added to 47 μL of assay cocktail per well and incubated at 37° C. for 1 hour. To initiate the transfer reaction, 2 μL radiolabeled LDL is added. After an additional 60 min of incubation at 37° C., the transfer action is terminated by precipitation of LDL with an equal volume of 20% W/V PEG 8000. The plates are centrifuged at 2000 rpm for 30 minutes at 4° C. A 40 μL aliquot of the HDL-containing supernatant is transferred to a Packard Optiplate™ with 200 μL of MicroScint™ 20. After mixing, plates are counted by liquid scintillation. Counts present in the supernatant for blanks (wells containing only HDL acceptor, CETP buffer and DMSO) are subtracted from those containing test compounds and used to correct for non-specific transfer.
(§6) Comparison of the counts of samples with inhibitors to an uninhibited (DMSO only) positive control yield a percent inhibition. A plot of percent inhibition vs. log of inhibitor concentration, fit to a Sigmoidal 4 parameter equation is used to calculate IC50.

[1] = biological target: T2, endogenous CETP from human serum (Homo sapiens, UniProt P11597); test: RTA assay using endogenous CETP from serum (95% RTA); format: biochemical; conditions: 95% human serum
T2 construct: yielding a concentration of approximately 15 nM endogenous CETP in the assay; from tissue; host or cells: human serum
T2 sequence (P11597 18-493): T1 sequence (P11597 18-493)
Procedure: as §1, §2, §3, §4, §5
For the transfer assay using endogenous CETP from serum (95% RTA), the same procedure is used except that human serum is added such that a final concentration of serum of 95% of the total assay volume is achieved, yielding a concentration of approximately 15 nM endogenous CETP in the assay. This is then combined with HDL and CETP buffer and the reaction proceeds as above and is terminated as described.
as §6

Row | Structure (SMILES) | IC50 (recombinant CETP) [nM] | IC50 [1] [nM]
1 | O[C@H](CN1CC(Cc2cccc(OC(F)(F)F)c2)(c2cccc(C(F)(F)F)c2)c2ccccc21)C(F)(F)F (mixture of isomers) [Example 1, (2R)-1,1,1-trifluoro-3-(3-(3-(trifluoromethoxy)benzyl)-3-(3-(trifluoromethyl)-phenyl)indolin-1-yl)propan-2-ol] | 28 | 1220
2 | O[C@H](CN1CC(Cc2cccc(OC(F)(F)F)c2)(c2cccc(Cl)c2)c2ccccc21)C(F)(F)F (mixture of isomers) [Example 4, (2R)-3-(3-(3-chlorophenyl)-3-(3-(trifluoromethoxy)benzyl)indolin-1-yl)-1,1,1-trifluoropropan-2-ol] | 466 | 1380
3 | COc1cccc(-c2cccc(C3(Cc4cccc(OC(F)(F)F)c4)CN(C[C@@H](O)C(F)(F)F)c4ccccc43)c2)c1 (mixture of isomers) [Example 25, (2R)-1,1,1-trifluoro-3-(3-(3′-methoxy-[1,1′-biphenyl]-3-yl)-3-(3-(trifluoromethoxy)benzyl)indolin-1-yl)propan-2-ol] | 1470 | 3130
4 | O=C(O)c1ccc(-c2cccc(C3(Cc4cccc(OC(F)(F)F)c4)CN(C[C@@H](O)C(F)(F)F)c4ccccc43)c2)cc1 (mixture of isomers) [Example 26, 3′-(1-((R)-3,3,3-trifluoro-2-hydroxypropyl)-3-(3-(trifluoromethoxy)-benzyl)indolin-3-yl)-[1,1′-biphenyl]-4-carboxylic acid] | 1350 | 3860
5 | O[C@H](CN1CC(Cc2cccc(OC(F)(F)F)c2)(c2cccc(N3CCOCC3)c2)c2ccccc21)C(F)(F)F (mixture of isomers) [Example 31, (2R)-1,1,1-trifluoro-3-(3-(3-morpholinophenyl)-3-(3-(trifluoromethoxy)benzyl)indolin-1-yl)propan-2-ol] | 146 | 643
6 | O[C@H](CN1CC(Cc2cccc(OC(F)(F)F)c2)(c2cccc(N[C@@H]3CCOC3)c2)c2ccccc21)C(F)(F)F (mixture of isomers) [Example 32] | 252 | 1430
7 | O[C@H](CN1CC(Cc2ccccc2)(c2cccc(OC(F)(F)F)c2)c2ccccc21)C(F)(F)F (stereo partly drawn) [Example 2] | 238 | 746
8 | O[C@H](CN1CC(Cc2cccc(Br)c2)(c2cccc(OC(F)(F)F)c2)c2ccccc21)C(F)(F)F (stereo partly drawn) [Example 3, (2R)-3-(3-(3-bromobenzyl)-3-(3-(trifluoromethoxy)phenyl)indolin-1-yl)-1,1,1-trifluoropropan-2-ol] | 67 | 308
9 | COc1ccc(CC2(c3cccc(OC(F)(F)F)c3)CN(C[C@@H](O)C(F)(F)F)c3ccccc32)cc1 (stereo partly drawn) [Example 5] | 2150 | 9680
10 | O[C@H](CN1CC(Cc2cccc(OC(F)(F)F)c2)(c2cccc(OC(F)(F)F)c2)c2cc(F)ccc21)C(F)(F)F (stereo partly drawn) [Example 6] | – | 763
11 | O[C@H](CN1CC(Cc2cccc(OC(F)(F)F)c2)(c2ccc(OC(F)(F)F)cc2)c2ccccc21)C(F)(F)F (stereo partly drawn) [Example 7] | – | 232
12 | O[C@H](CN1CC(Cc2cccc(OC(F)(F)F)c2)(c2cccc(OC(F)(F)C(F)F)c2)c2ccccc21)C(F)(F)F (stereo partly drawn) [Example 8] | 25 | 94
13 | O[C@H](CN1CC(Cc2cccc(OC(F)(F)F)c2)(c2cccc(OC(F)(F)F)c2)c2ccccc21)C(F)(F)F (stereo partly drawn) [Example 10] | – | 69
14 | O[C@H](CN1CC(Cc2ccc(F)cn2)(c2cccc(OC(F)(F)F)c2)c2cccc(F)c21)C(F)(F)F (stereo partly drawn) [Example 15] | 2860 | –
15 | Cc1ccc(C2(Cc3cccc(OC(F)(F)F)c3)CN(C[C@@H](O)C(F)(F)F)c3ccccc32)cc1-c1ccc(C(=O)O)cc1 (stereo partly drawn) [Example 28] | 1510 | –
16 | Cc1cc(C(=O)O)ccc1-c1cc(C2(Cc3cccc(OC(F)(F)F)c3)CN(C[C@@H](O)C(F)(F)F)c3ccccc32)ccc1C (stereo partly drawn) [Example 29] | 1690 | –
17 | Cc1cc(C(=O)O)ccc1-c1cc(C2(Cc3cccc(OC(F)(F)F)c3)CN(C[C@@H](O)C(F)(F)F)c3ccccc32)ccc1F (stereo partly drawn) [Example 30] | 328 | –
